Source: patent EP0908457B1, “3-(1,2-benzisothiazol- and isoxazol-5-Y1)-2,4(1H,3H)-pyrimidinedione or thione and 3-(1,2-benzisothiazol- and isoxazol-5-y1)-4(3H)-pyrimidinone or thione herbicidal agents” (BASF AKTIENGESELLSCHAFT, priority 1997, dated 1999)

Tests used:
Format in all cases: in vivo
Cyperus iria = assay: Preemergence weed control under flooded paddy conditions, CYPIR (Rice Flatsedge); conditions: flooded paddy; for herbicidal effect rating, CYPIR / CYPIR: preemergence weeds; for herbicidal effect rating, CYPIR / CYPIR herbicidal rating: rated three to four weeks after treatment; for CYPIR herbicidal rating: preemergence; for CYPIR: herbicidal effect rating 0-9, three to four weeks after treatment; on herbicidal effect rating, CYPIR: meaning of each grade not given here
Sagittaria pygmaea, L. = assay: Preemergence weed control under flooded paddy conditions, SAGPY (Arrowhead (Pygmaea)); conditions: flooded paddy; for herbicidal effect rating, SAGPY / SAGPY: preemergence weeds; for herbicidal effect rating, SAGPY / SAGPY herbicidal rating: rated three to four weeks after treatment; for SAGPY herbicidal rating: preemergence; for SAGPY: herbicidal effect rating 0-9, three to four weeks after treatment; on herbicidal effect rating, SAGPY: meaning of each grade not given here
[1] = system: Echinochloa oryzoides (Ard.) Fritsch.; assay: Preemergence weed control under flooded paddy conditions, ECHORC (Watergrass (Calif.)); conditions: flooded paddy; for herbicidal effect rating, ECHORC / ECHORC: preemergence weeds; for herbicidal effect rating, ECHORC / ECHORC herbicidal rating: rated three to four weeks after treatment; for ECHORC herbicidal rating: preemergence; for ECHORC: herbicidal effect rating 0-9, three to four weeks after treatment; on herbicidal effect rating, ECHORC: meaning of each grade not given here
[2] = system: Cyperus serotinus, Rottb.; assay: Preemergence weed control under flooded paddy conditions, CYPSE (Flatsedge); conditions: for herbicidal effect rating, CYPSE / CYPSE: preemergence weeds; for herbicidal effect rating, CYPSE / CYPSE herbicidal rating: rated three to four weeks after treatment; for CYPSE herbicidal rating: preemergence; for CYPSE: herbicidal effect rating 0-9, three to four weeks after treatment; on herbicidal effect rating, CYPSE: meaning of each grade not given here
[3] = system: Monochoria vaginalis, Presl.; assay: Preemergence weed control under flooded paddy conditions, MOOVA (Monochoria); conditions: flooded paddy; for herbicidal effect rating, MOOVA / MOOVA: preemergence weeds; for herbicidal effect rating, MOOVA / MOOVA herbicidal rating: rated three to four weeks after treatment; for MOOVA herbicidal rating: preemergence; for MOOVA: herbicidal effect rating 0-9, three to four weeks after treatment; on herbicidal effect rating, MOOVA: meaning of each grade not given here

## Cn1c(C(F)(F)F)cc(=O)n(-c2ccc3snc(CO[N+](=O)[O-])c3c2)c1=O [Example 310, 2,4(1H,3H)-Pyrimidinedione, 3-[3-(hydroxymethyl)-1,2-benzisothiazol-5-yl]-1-methyl-6-(trifluoromethyl)-, nitrate (ester)]
Cyperus iria; Rate 0.0320 kg/ha
  herbicidal effect rating, CYPIR: 9.0
Cyperus iria; Rate 0.0620 kg/ha
  herbicidal effect rating, CYPIR: 9.0
Cyperus iria; Rate 0.1250 kg/ha
  herbicidal effect rating, CYPIR: 9.0
Cyperus iria; Rate 0.2500 kg/ha
  herbicidal effect rating, CYPIR: 9.0
Sagittaria pygmaea, L.; Rate 0.0320 kg/ha
  herbicidal effect rating, SAGPY: 0.0
Sagittaria pygmaea, L.; Rate 0.0620 kg/ha
  herbicidal effect rating, SAGPY: 0.0
Sagittaria pygmaea, L.; Rate 0.1250 kg/ha
  herbicidal effect rating, SAGPY: 0.0
Sagittaria pygmaea, L.; Rate 0.2500 kg/ha
  herbicidal effect rating, SAGPY: 0.0
[1]; Rate 0.0320 kg/ha
  herbicidal effect rating, ECHORC: 0.0
[1]; Rate 0.0620 kg/ha
  herbicidal effect rating, ECHORC: 0.0
[1]; Rate 0.1250 kg/ha
  herbicidal effect rating, ECHORC: 2.0
[1]; Rate 0.2500 kg/ha
  herbicidal effect rating, ECHORC: 3.0
[2]; Rate 0.0320 kg/ha
  herbicidal effect rating, CYPSE: 0.0
[2]; Rate 0.0620 kg/ha
  herbicidal effect rating, CYPSE: 0.0
[2]; Rate 0.1250 kg/ha
  herbicidal effect rating, CYPSE: 0.0
[2]; Rate 0.2500 kg/ha
  herbicidal effect rating, CYPSE: 0.0
[3]; Rate 0.0320 kg/ha
  herbicidal effect rating, MOOVA: 9.0
[3]; Rate 0.0620 kg/ha
  herbicidal effect rating, MOOVA: 9.0
[3]; Rate 0.1250 kg/ha
  herbicidal effect rating, MOOVA: 9.0
[3]; Rate 0.2500 kg/ha
  herbicidal effect rating, MOOVA: 9.0

## Cn1c(C(F)(F)F)cc(=O)n(-c2ccc3snc(COC(=O)c4ccc(Cl)nc4)c3c2)c1=O [Example 481, 2,4(1H,3H)-Pyrimidinedione, 3-[3-(hydroxymethyl)-1,2-benzisothiazol-5-yl]-1-methyl-6-(trifluoromethyl)-, 6-chloronicotinate (ester)]
Cyperus iria; 0.0320 kg/ha
  CYPIR herbicidal rating: 0.0
Cyperus iria; 0.0620 kg/ha
  CYPIR herbicidal rating: 2.0
Cyperus iria; 0.1250 kg/ha
  CYPIR herbicidal rating: 6.0
Cyperus iria; 0.2500 kg/ha
  CYPIR herbicidal rating: 9.0
Sagittaria pygmaea, L.; 0.0320 kg/ha
  SAGPY herbicidal rating: 0.0
Sagittaria pygmaea, L.; 0.0620 kg/ha
  SAGPY herbicidal rating: 0.0
Sagittaria pygmaea, L.; 0.1250 kg/ha
  SAGPY herbicidal rating: 0.0
[1]; 0.0320 kg/ha
  ECHORC herbicidal rating: 0.0
[1]; 0.0620 kg/ha
  ECHORC herbicidal rating: 2.0
[1]; 0.1250 kg/ha
  ECHORC herbicidal rating: 9.0
[1]; 0.2500 kg/ha
  ECHORC herbicidal rating: 9.0
[2]; 0.2500 kg/ha
  CYPSE herbicidal rating: 6.0
[3]; 0.0320 kg/ha
  MOOVA herbicidal rating: 6.0
[3]; 0.0620 kg/ha
  MOOVA herbicidal rating: 7.0
[3]; 0.1250 kg/ha
  MOOVA herbicidal rating: 7.0
[3]; 0.2500 kg/ha
  MOOVA herbicidal rating: 9.0

## Cn1c(C(F)(F)F)cc(=O)n(-c2ccc3snc(COC(=O)c4cc(Cl)nc(Cl)c4)c3c2)c1=O [Example 474, 2,4(1H,3H)-Pyrimidinedione, 3-[3-(hydroxymethyl)-1,2-benzisothiazol-5-yl]-1-methyl-6-(trifluoromethyl)-, 2,6-dichloroisonicotinate (ester)]
Cyperus iria; 0.0320 kg/ha
  CYPIR herbicidal rating: 2.0
Cyperus iria; 0.0620 kg/ha
  CYPIR herbicidal rating: 5.0
Cyperus iria; 0.1250 kg/ha
  CYPIR herbicidal rating: 4.0
Cyperus iria; 0.2500 kg/ha
  CYPIR herbicidal rating: 6.0
Sagittaria pygmaea, L.; 0.0320 kg/ha
  SAGPY herbicidal rating: 0.0
Sagittaria pygmaea, L.; 0.0620 kg/ha
  SAGPY herbicidal rating: 0.0
Sagittaria pygmaea, L.; 0.1250 kg/ha
  SAGPY herbicidal rating: 0.0
Sagittaria pygmaea, L.; 0.2500 kg/ha
  SAGPY herbicidal rating: 0.0
[1]; 0.0320 kg/ha
  ECHORC herbicidal rating: 0.0
[1]; 0.0620 kg/ha
  ECHORC herbicidal rating: 0.0
[1]; 0.1250 kg/ha
  ECHORC herbicidal rating: 0.0
[1]; 0.2500 kg/ha
  ECHORC herbicidal rating: 0.0
[2]; 0.0320 kg/ha
  CYPSE herbicidal rating: 0.0
[2]; 0.0620 kg/ha
  CYPSE herbicidal rating: 0.0
[2]; 0.1250 kg/ha
  CYPSE herbicidal rating: 0.0
[2]; 0.2500 kg/ha
  CYPSE herbicidal rating: 0.0
[3]; 0.0320 kg/ha
  MOOVA herbicidal rating: 2.0
[3]; 0.0620 kg/ha
  MOOVA herbicidal rating: 3.0
[3]; 0.1250 kg/ha
  MOOVA herbicidal rating: 7.0
[3]; 0.2500 kg/ha
  MOOVA herbicidal rating: 9.0

## COc1cccc(CC(=O)OCc2nsc3ccc(-n4c(=O)cc(C(F)(F)F)n(C)c4=O)cc23)c1 [Example 454, 2,4(1H,3H)-Pyrimidinedione, 3-[3-(hydroxymethyl)-1,2-benzisothiazol-5-yl]-1-methyl-6-(trifluoromethyl)-, (m-methoxyphenyl)acetate (ester)]
Cyperus iria; 0.0320 kg/ha
  CYPIR: 0.0
Cyperus iria; 0.0620 kg/ha
  CYPIR: 1.0
Cyperus iria; 0.1250 kg/ha
  CYPIR: 6.0
Cyperus iria; 0.2500 kg/ha
  CYPIR: 9.0
Sagittaria pygmaea, L.; 0.0320 kg/ha
  SAGPY: 0.0
Sagittaria pygmaea, L.; 0.0620 kg/ha
  SAGPY: 2.0
Sagittaria pygmaea, L.; 0.1250 kg/ha
  SAGPY: 3.0
Sagittaria pygmaea, L.; 0.2500 kg/ha
  SAGPY: 6.0
[1]; 0.0320 kg/ha
  ECHORC: 3.0
[1]; 0.0620 kg/ha
  ECHORC: 3.0
[1]; 0.1250 kg/ha
  ECHORC: 6.0
[1]; 0.2500 kg/ha
  ECHORC: 7.0
[2]; 0.0320 kg/ha
  CYPSE: 0.0
[2]; 0.0620 kg/ha
  CYPSE: 0.0
[2]; 0.1250 kg/ha
  CYPSE: 4.0
[2]; 0.2500 kg/ha
  CYPSE: 8.0
[3]; 0.0320 kg/ha
  MOOVA: 2.0
[3]; 0.0620 kg/ha
  MOOVA: 7.0
[3]; 0.1250 kg/ha
  MOOVA: 9.0
[3]; 0.2500 kg/ha
  MOOVA: 9.0
